#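 Results reflect a 48-hour exposure of cells in 96-well plates to compound at five concentrations. TGI denotes the concentration required for complete inhibition of growth.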
# Tests used:
# Assay in all cases: NCI-60 cell line screen, 48 h
# MDA-MB-435 = system: MDA-MB-435
# SK-MEL-28 melanoma = system: SK-MEL-28 melanoma
# MALME-3M melanoma = system: MALME-3M melanoma
# SN12C renal = system: SN12C renal
# RXF 393 renal = system: RXF 393 renal
# OVCAR-3 ovarian = system: OVCAR-3 ovarian
# COLO 205 colon = system: COLO 205 colon
# UACC-62 melanoma = system: UACC-62 melanoma
# MOLT-4 leukemia = system: MOLT-4 leukemia
# OVCAR-8 ovarian = system: OVCAR-8 ovarian
# KM12 colon = system: KM12 colon
# IGROV1 ovarian = system: IGROV1 ovarian
# HCT-116 colon = system: HCT-116 colon
# HCT-15 colon = system: HCT-15 colon
# HT29 colon = system: HT29 colon
# UACC-257 melanoma = system: UACC-257 melanoma
# SK-MEL-2 melanoma = system: SK-MEL-2 melanoma
# EKVX NSCLC = system: EKVX NSCLC
# TK-10 renal = system: TK-10 renal
# T-47D breast = system: T-47D breast
# SK-OV-3 ovarian = system: SK-OV-3 ovarian
# BT-549 breast = system: BT-549 breast
# RPMI-8226 leukemia = system: RPMI-8226 leukemia
# UO-31 renal = system: UO-31 renal
# HS 578T breast = system: HS 578T breast
# NCI-H226 lung = system: NCI-H226 lung
# SK-MEL-5 melanoma = system: SK-MEL-5 melanoma
# NCI/ADR-RES ovarian = system: NCI/ADR-RES ovarian
# HOP-92 NSCLC = system: HOP-92 NSCLC
# A498 renal = system: A498 renal
# ACHN renal = system: ACHN renal
# LOX IMVI melanoma = system: LOX IMVI melanoma
# SNB-75 CNS = system: SNB-75 CNS
# MDA-N = system: MDA-N
# CCRF-CEM leukemia = system: CCRF-CEM leukemia
# NCI-H23 lung = system: NCI-H23 lung
# A549 NSCLC = system: A549 NSCLC
# SF-295 CNS = system: SF-295 CNS
# K-562 leukemia = system: K-562 leukemia
# U251 CNS = system: U251 CNS
# M14 melanoma = system: M14 melanoma
# CAKI-1 renal = system: CAKI-1 renal
# OVCAR-5 ovarian = system: OVCAR-5 ovarian
# DU-145 prostate = system: DU-145 prostate
# NCI-H522 lung = system: NCI-H522 lung
# SW-620 colon = system: SW-620 colon
# SNB-19 CNS = system: SNB-19 CNS
# OVCAR-4 ovarian = system: OVCAR-4 ovarian
# MDA-MB-231 breast = system: MDA-MB-231 breast
# 786-0 renal = system: 786-0 renal
# PC-3 prostate = system: PC-3 prostate
# HOP-62 NSCLC = system: HOP-62 NSCLC
# SF-268 CNS = system: SF-268 CNS
# NCI-H460 lung = system: NCI-H460 lung
# HL-60(TB) leukemia = system: HL-60(TB) leukemia
# SF-539 CNS = system: SF-539 CNS
# MCF7 breast = system: MCF7 breast
structure (smiles),measurement,setting,value
C[C@@H](CO)C1=C(O)c2ccc3c(c2C(=O)C1=O)CCCC3(C)C,TGI,MDA-MB-435,> 100 µM
same,TGI,SK-MEL-28 melanoma,> 100 µM
same,TGI,MALME-3M melanoma,50 µM
same,TGI,SN12C renal,> 100 µM
same,TGI,RXF 393 renal,> 100 µM
same,TGI,OVCAR-3 ovarian,> 100 µM
same,TGI,COLO 205 colon,> 100 µM
same,TGI,UACC-62 melanoma,77.4 µM
same,TGI,MOLT-4 leukemia,> 100 µM
same,TGI,OVCAR-8 ovarian,> 100 µM
same,TGI,KM12 colon,> 100 µM
same,TGI,IGROV1 ovarian,> 100 µM
same,TGI,HCT-116 colon,> 100 µM
same,TGI,HCT-15 colon,> 100 µM
same,TGI,HT29 colon,> 100 µM
same,TGI,UACC-257 melanoma,> 100 µM
same,TGI,SK-MEL-2 melanoma,84.7 µM
same,TGI,EKVX NSCLC,> 100 µM
same,TGI,TK-10 renal,> 100 µM
same,TGI,T-47D breast,> 100 µM
same,TGI,SK-OV-3 ovarian,> 100 µM
same,TGI,BT-549 breast,> 100 µM
same,TGI,RPMI-8226 leukemia,> 100 µM
same,TGI,UO-31 renal,> 100 µM
same,TGI,HS 578T breast,> 100 µM
same,TGI,NCI-H226 lung,> 100 µM
same,TGI,SK-MEL-5 melanoma,> 100 µM
same,TGI,NCI/ADR-RES ovarian,> 100 µM
same,TGI,HOP-92 NSCLC,> 100 µM
same,TGI,A498 renal,> 100 µM
same,TGI,ACHN renal,43.2 µM
same,TGI,LOX IMVI melanoma,> 100 µM
same,TGI,SNB-75 CNS,> 100 µM
same,TGI,MDA-N,> 100 µM
same,TGI,CCRF-CEM leukemia,34 µM
same,TGI,NCI-H23 lung,56.1 µM
same,TGI,A549 NSCLC,> 100 µM
same,TGI,SF-295 CNS,> 100 µM
same,TGI,K-562 leukemia,> 100 µM
same,TGI,U251 CNS,> 100 µM
same,TGI,M14 melanoma,40.6 µM
same,TGI,CAKI-1 renal,> 100 µM
same,TGI,OVCAR-5 ovarian,> 100 µM
same,TGI,DU-145 prostate,> 100 µM
same,TGI,NCI-H522 lung,62.6 µM
same,TGI,SW-620 colon,> 100 µM
same,TGI,SNB-19 CNS,68.9 µM
same,TGI,OVCAR-4 ovarian,> 100 µM
same,TGI,MDA-MB-231 breast,> 100 µM
same,TGI,786-0 renal,> 100 µM
same,TGI,PC-3 prostate,> 100 µM
same,TGI,HOP-62 NSCLC,> 100 µM
same,TGI,SF-268 CNS,> 100 µM
CCOP(=O)(CN1CCNCCN(CP(=O)(OCC)OCC)CC1)OCC,TGI,MDA-MB-435,> 100 µM
same,TGI,SK-MEL-28 melanoma,> 100 µM
same,TGI,MALME-3M melanoma,> 30.4 µM
same,TGI,NCI-H460 lung,> 100 µM
same,TGI,SN12C renal,> 100 µM
same,TGI,RXF 393 renal,> 100 µM
same,TGI,OVCAR-3 ovarian,> 100 µM
same,TGI,COLO 205 colon,> 100 µM
same,TGI,UACC-62 melanoma,> 100 µM
same,TGI,MOLT-4 leukemia,> 100 µM
same,TGI,OVCAR-8 ovarian,> 100 µM
same,TGI,KM12 colon,> 100 µM
same,TGI,IGROV1 ovarian,> 100 µM
same,TGI,HCT-116 colon,> 100 µM
same,TGI,HCT-15 colon,> 100 µM
same,TGI,HL-60(TB) leukemia,> 100 µM
same,TGI,HT29 colon,> 100 µM
same,TGI,UACC-257 melanoma,> 100 µM
same,TGI,SK-MEL-2 melanoma,> 100 µM
same,TGI,EKVX NSCLC,> 100 µM
same,TGI,TK-10 renal,> 100 µM
same,TGI,T-47D breast,> 100 µM
same,TGI,SK-OV-3 ovarian,> 100 µM
same,TGI,BT-549 breast,> 100 µM
same,TGI,RPMI-8226 leukemia,> 100 µM
same,TGI,UO-31 renal,> 100 µM
same,TGI,HS 578T breast,> 100 µM
same,TGI,NCI-H226 lung,> 100 µM
same,TGI,SK-MEL-5 melanoma,> 100 µM
same,TGI,NCI/ADR-RES ovarian,> 100 µM
same,TGI,HOP-92 NSCLC,> 100 µM
same,TGI,A498 renal,> 100 µM
same,TGI,ACHN renal,> 100 µM
same,TGI,LOX IMVI melanoma,> 100 µM
same,TGI,SNB-75 CNS,> 100 µM
same,TGI,MDA-N,> 100 µM
same,TGI,CCRF-CEM leukemia,> 31.6 µM
same,TGI,NCI-H23 lung,> 100 µM
same,TGI,A549 NSCLC,> 100 µM
same,TGI,SF-295 CNS,> 100 µM
same,TGI,K-562 leukemia,> 100 µM
same,TGI,U251 CNS,> 100 µM
same,TGI,M14 melanoma,> 100 µM
same,TGI,CAKI-1 renal,> 100 µM
same,TGI,OVCAR-5 ovarian,> 100 µM
same,TGI,SF-539 CNS,> 100 µM
same,TGI,DU-145 prostate,> 100 µM
same,TGI,NCI-H522 lung,> 100 µM
same,TGI,MCF7 breast,> 100 µM
same,TGI,SW-620 colon,> 100 µM
same,TGI,SNB-19 CNS,> 100 µM
same,TGI,OVCAR-4 ovarian,> 100 µM
same,TGI,MDA-MB-231 breast,> 100 µM
same,TGI,786-0 renal,> 100 µM
same,TGI,PC-3 prostate,> 100 µM
same,TGI,HOP-62 NSCLC,> 100 µM
same,TGI,SF-268 CNS,> 100 µM
CCOC(=O)CO/N=C\C1=CC(=O)C2CC1C2(C)C (stereo not given),TGI,MDA-MB-435,> 100 µM
same,TGI,SK-MEL-28 melanoma,> 100 µM
same,TGI,MALME-3M melanoma,> 100 µM
same,TGI,SN12C renal,> 100 µM
same,TGI,RXF 393 renal,> 100 µM
same,TGI,OVCAR-3 ovarian,> 100 µM
same,TGI,COLO 205 colon,> 100 µM
same,TGI,UACC-62 melanoma,> 100 µM
same,TGI,MOLT-4 leukemia,> 100 µM
same,TGI,OVCAR-8 ovarian,> 100 µM
same,TGI,KM12 colon,> 100 µM
same,TGI,IGROV1 ovarian,> 100 µM
same,TGI,HCT-116 colon,> 100 µM
same,TGI,HCT-15 colon,> 100 µM
same,TGI,HL-60(TB) leukemia,> 100 µM
same,TGI,HT29 colon,> 100 µM
same,TGI,UACC-257 melanoma,> 100 µM
same,TGI,SK-MEL-2 melanoma,> 100 µM
same,TGI,EKVX NSCLC,> 100 µM
same,TGI,TK-10 renal,> 100 µM
same,TGI,T-47D breast,> 100 µM
same,TGI,BT-549 breast,> 100 µM
same,TGI,RPMI-8226 leukemia,> 100 µM
same,TGI,UO-31 renal,> 100 µM
same,TGI,HS 578T breast,> 100 µM
same,TGI,NCI-H226 lung,> 100 µM
same,TGI,SK-MEL-5 melanoma,> 100 µM
same,TGI,NCI/ADR-RES ovarian,> 100 µM
same,TGI,A498 renal,> 100 µM
same,TGI,ACHN renal,> 100 µM
same,TGI,LOX IMVI melanoma,> 100 µM
same,TGI,SNB-75 CNS,> 100 µM
same,TGI,MDA-N,> 100 µM
same,TGI,CCRF-CEM leukemia,> 100 µM
same,TGI,NCI-H23 lung,> 100 µM
same,TGI,SF-295 CNS,> 100 µM
same,TGI,K-562 leukemia,> 100 µM
same,TGI,U251 CNS,> 100 µM
same,TGI,M14 melanoma,> 100 µM
same,TGI,CAKI-1 renal,> 100 µM
same,TGI,OVCAR-5 ovarian,> 100 µM
same,TGI,SF-539 CNS,> 100 µM
same,TGI,DU-145 prostate,> 100 µM
same,TGI,MCF7 breast,> 100 µM
same,TGI,SW-620 colon,> 100 µM
same,TGI,SNB-19 CNS,> 100 µM
same,TGI,MDA-MB-231 breast,> 100 µM
same,TGI,786-0 renal,> 100 µM
same,TGI,PC-3 prostate,> 100 µM
same,TGI,SF-268 CNS,> 100 µM
